Columns and labels:
[1] = molecular target: CYP2D6 (Homo sapiens, UniProt P10635); assay: enzyme inhibition in vitro; format: in vitro ADME
[2] = molecular target: CYP2C19 (Homo sapiens, UniProt P33261); assay: enzyme inhibition in vitro; format: in vitro ADME
[3] = test system: lung function; assay: Example 1: percent predicted TLC change from baseline; format: in vivo, human; details: mean (SD)
Procedure: Change From Baseline in Percent Predicted Total Lung Capacity (TLC) at Each Specified Time Points. TLC is the volume of air in the lungs upon the maximum effort of inspiration. Baseline value was defined as valid and last non-missing value obtained within 28 days prior to participant receiving first study medication. EOT visit was performed within 3 days after the participant's last dose of study drug. […] Analysis was performed on mITT population. Here, ‘number analyzed’=participants with available data for each specified category. Here, ‘0’ in the number analyzed field signifies that none of the participants were available for the analysis at the specified time points.

Sequence of CYP2C19 (P33261 whole entry): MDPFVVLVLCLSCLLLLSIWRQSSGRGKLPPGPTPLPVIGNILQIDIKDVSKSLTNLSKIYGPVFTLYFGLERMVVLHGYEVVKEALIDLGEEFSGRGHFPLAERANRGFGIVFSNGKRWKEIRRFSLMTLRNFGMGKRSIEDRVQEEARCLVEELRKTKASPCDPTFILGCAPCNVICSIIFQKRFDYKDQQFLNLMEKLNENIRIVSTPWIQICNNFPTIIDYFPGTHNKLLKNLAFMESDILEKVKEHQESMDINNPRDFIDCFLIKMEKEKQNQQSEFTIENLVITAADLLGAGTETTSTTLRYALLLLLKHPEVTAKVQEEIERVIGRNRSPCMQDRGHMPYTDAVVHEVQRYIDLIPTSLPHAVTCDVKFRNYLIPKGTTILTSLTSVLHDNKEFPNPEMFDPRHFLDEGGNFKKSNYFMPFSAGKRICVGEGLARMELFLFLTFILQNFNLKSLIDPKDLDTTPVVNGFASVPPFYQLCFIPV
Sequence of CYP2D6 (P10635 whole entry): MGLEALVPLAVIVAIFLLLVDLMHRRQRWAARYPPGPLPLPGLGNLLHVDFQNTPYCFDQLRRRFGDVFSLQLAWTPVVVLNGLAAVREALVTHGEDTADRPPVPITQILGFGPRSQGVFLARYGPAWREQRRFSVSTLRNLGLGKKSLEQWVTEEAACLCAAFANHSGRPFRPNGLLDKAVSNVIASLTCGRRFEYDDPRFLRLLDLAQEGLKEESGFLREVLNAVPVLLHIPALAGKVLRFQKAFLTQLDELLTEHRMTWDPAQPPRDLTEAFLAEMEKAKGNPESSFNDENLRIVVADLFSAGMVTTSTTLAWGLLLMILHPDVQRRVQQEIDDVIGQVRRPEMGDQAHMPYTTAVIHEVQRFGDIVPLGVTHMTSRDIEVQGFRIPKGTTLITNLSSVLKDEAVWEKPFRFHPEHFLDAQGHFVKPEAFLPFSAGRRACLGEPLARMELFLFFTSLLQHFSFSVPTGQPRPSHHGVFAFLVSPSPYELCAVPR

Structure (SMILES): CC(C)NC(=O)COc1cccc(-c2nc(Nc3ccc4[nH]ncc4c3)c3ccccc3n2)c1 [Belumosudil, 2-{3-[4-(1H-indazol-5-ylamino)-2-quinazolinyl]phenoxy}-N-(propan-2-yl) acetamide]
- inhibition of CYP2D6 [1]: inhibitor
- inhibition of CYP2C19 [2]: inhibitor
- Change From Baseline in Percent Predicted Total Lung Capacity (TLC) ([3]; Cohort 1: 200 mg QD, Cycle 3, Day 1): 1.6 (11.9) Percent Predicted TLC
- Change From Baseline in Percent Predicted Total Lung Capacity (TLC) ([3]; Cohort 1: 200 mg QD, Cycle 5, Day 1): −2.6 (16.8) Percent Predicted TLC
- Change From Baseline in Percent Predicted Total Lung Capacity (TLC) ([3]; Cohort 1: 200 mg QD, Cycle 7, Day 1): −3.7 (6.6) Percent Predicted TLC
- Change From Baseline in Percent Predicted Total Lung Capacity (TLC) ([3]; Cohort 1: 200 mg QD, Cycle 9, Day 1): −2.9 (6.1) Percent Predicted TLC
- Change From Baseline in Percent Predicted Total Lung Capacity (TLC) ([3]; Cohort 1: 200 mg QD, Cycle 11, Day 1): 0.7 (4.3) Percent Predicted TLC
- Change From Baseline in Percent Predicted Total Lung Capacity (TLC) ([3]; Cohort 1: 200 mg QD, Cycle 12, Day 1): −9.0 (—) Percent Predicted TLC
- Change From Baseline in Percent Predicted Total Lung Capacity (TLC) ([3]; Cohort 1: 200 mg QD, Cycle 13, Day 1): −0.3 (7.1) Percent Predicted TLC
- Change From Baseline in Percent Predicted Total Lung Capacity (TLC) ([3]; Cohort 1: 200 mg QD, Cycle 14, Day 1): 23.0 (—) Percent Predicted TLC
- Change From Baseline in Percent Predicted Total Lung Capacity (TLC) ([3]; Cohort 1: 200 mg QD, Cycle 15, Day 1): −2.8 (10.8) Percent Predicted TLC
- Change From Baseline in Percent Predicted Total Lung Capacity (TLC) ([3]; Cohort 1: 200 mg QD, Cycle 16, Day 1): −3.0 (—) Percent Predicted TLC
- Change From Baseline in Percent Predicted Total Lung Capacity (TLC) ([3]; Cohort 1: 200 mg QD, Cycle 17, Day 1): −3.0 (6.2) Percent Predicted TLC
- Change From Baseline in Percent Predicted Total Lung Capacity (TLC) ([3]; Cohort 1: 200 mg QD, Cycle 19, Day 1): −4.6 (6.1) Percent Predicted TLC
- Change From Baseline in Percent Predicted Total Lung Capacity (TLC) ([3]; Cohort 1: 200 mg QD, Cycle 21, Day 1): 0.3 (9.3) Percent Predicted TLC
- Change From Baseline in Percent Predicted Total Lung Capacity (TLC) ([3]; Cohort 1: 200 mg QD, Cycle 23, Day 1): 0.0 (8.7) Percent Predicted TLC
- Change From Baseline in Percent Predicted Total Lung Capacity (TLC) ([3]; Cohort 1: 200 mg QD, Cycle 24, Day 1): 0.0 (—) Percent Predicted TLC
- Change From Baseline in Percent Predicted Total Lung Capacity (TLC) ([3]; Cohort 1: 200 mg QD, Cycle 25, Day 1): −3.0 (7.1) Percent Predicted TLC
- Change From Baseline in Percent Predicted Total Lung Capacity (TLC) ([3]; Cohort 1: 200 mg QD, Cycle 26, Day 1): 0.0 (—) Percent Predicted TLC
- Change From Baseline in Percent Predicted Total Lung Capacity (TLC) ([3]; Cohort 1: 200 mg QD, Cycle 27, Day 1): 5.5 (16.3) Percent Predicted TLC
- Change From Baseline in Percent Predicted Total Lung Capacity (TLC) ([3]; Cohort 1: 200 mg QD, Cycle 29, Day 1): −1.0 (17.0) Percent Predicted TLC
- Change From Baseline in Percent Predicted Total Lung Capacity (TLC) ([3]; Cohort 1: 200 mg QD, Cycle 30, Day 1): 7.0 (—) Percent Predicted TLC
- Change From Baseline in Percent Predicted Total Lung Capacity (TLC) ([3]; Cohort 1: 200 mg QD, Cycle 31, Day 1): 7.5 (17.7) Percent Predicted TLC
- Change From Baseline in Percent Predicted Total Lung Capacity (TLC) ([3]; Cohort 1: 200 mg QD, Cycle 32, Day 1): 1.0 (—) Percent Predicted TLC
- Change From Baseline in Percent Predicted Total Lung Capacity (TLC) ([3]; Cohort 1: 200 mg QD, Cycle 33, Day 1): 14.0 (11.3) Percent Predicted TLC
- Change From Baseline in Percent Predicted Total Lung Capacity (TLC) ([3]; Cohort 1: 200 mg QD, Cycle 34, Day 1): 2.0 (—) Percent Predicted TLC
- Change From Baseline in Percent Predicted Total Lung Capacity (TLC) ([3]; Cohort 1: 200 mg QD, Cycle 35, Day 1): 10.5 (7.8) Percent Predicted TLC
- Change From Baseline in Percent Predicted Total Lung Capacity (TLC) ([3]; Cohort 1: 200 mg QD, Cycle 36, Day 1): 6.0 (—) Percent Predicted TLC
- Change From Baseline in Percent Predicted Total Lung Capacity (TLC) ([3]; Cohort 1: 200 mg QD, Cycle 48, Day 1): −13.0 (—) Percent Predicted TLC
- Change From Baseline in Percent Predicted Total Lung Capacity (TLC) ([3]; Cohort 1: 200 mg QD, Cycle 49, Day 1): 5.0 (—) Percent Predicted TLC
- Change From Baseline in Percent Predicted Total Lung Capacity (TLC) ([3]; Cohort 1: 200 mg QD, Cycle 51, Day 1): 15.0 (—) Percent Predicted TLC
- Change From Baseline in Percent Predicted Total Lung Capacity (TLC) ([3]; Cohort 1: 200 mg QD, Cycle 52, Day 1): 1.0 (—) Percent Predicted TLC
- Change From Baseline in Percent Predicted Total Lung Capacity (TLC) ([3]; Cohort 1: 200 mg QD, Cycle 53, Day 1): 15.0 (—) Percent Predicted TLC
- Change From Baseline in Percent Predicted Total Lung Capacity (TLC) ([3]; Cohort 1: 200 mg QD, Cycle 54, Day 1): 4.0 (—) Percent Predicted TLC
- Change From Baseline in Percent Predicted Total Lung Capacity (TLC) ([3]; Cohort 1: 200 mg QD, Cycle 55, Day 1): 29.0 (—) Percent Predicted TLC
- Change From Baseline in Percent Predicted Total Lung Capacity (TLC) ([3]; Cohort 1: 200 mg QD, Cycle 56, Day 1): 9.0 (—) Percent Predicted TLC
- Change From Baseline in Percent Predicted Total Lung Capacity (TLC) ([3]; Cohort 1: 200 mg QD, Cycle 57, Day 1): 18.0 (—) Percent Predicted TLC
- Change From Baseline in Percent Predicted Total Lung Capacity (TLC) ([3]; Cohort 1: 200 mg QD, Cycle 58, Day 1): 5.0 (—) Percent Predicted TLC
- Change From Baseline in Percent Predicted Total Lung Capacity (TLC) ([3]; Cohort 1: 200 mg QD, Cycle 60, Day 1): −3.0 (—) Percent Predicted TLC
- Change From Baseline in Percent Predicted Total Lung Capacity (TLC) ([3]; Cohort 1: 200 mg QD, Cycle 61, Day 1): 5.0 (—) Percent Predicted TLC
- Change From Baseline in Percent Predicted Total Lung Capacity (TLC) ([3]; Cohort 1: 200 mg QD, Cycle 62, Day 1): −1.0 (—) Percent Predicted TLC
- Change From Baseline in Percent Predicted Total Lung Capacity (TLC) ([3]; Cohort 1: 200 mg QD, Cycle 63, Day 1): 12.0 (—) Percent Predicted TLC
- Change From Baseline in Percent Predicted Total Lung Capacity (TLC) ([3]; Cohort 1: 200 mg QD, Cycle 67, Day 1): 12.0 (—) Percent Predicted TLC
- Change From Baseline in Percent Predicted Total Lung Capacity (TLC) ([3]; Cohort 1: 200 mg QD, EOT): 5.2 (27.5) Percent Predicted TLC
- Change From Baseline in Percent Predicted Total Lung Capacity (TLC) ([3]; Cohort 2: 200 mg BID, Cycle 3, Day 1): 1.9 (8.5) Percent Predicted TLC
- Change From Baseline in Percent Predicted Total Lung Capacity (TLC) ([3]; Cohort 2: 200 mg BID, Cycle 5, Day 1): −7.2 (10.5) Percent Predicted TLC
- Change From Baseline in Percent Predicted Total Lung Capacity (TLC) ([3]; Cohort 2: 200 mg BID, Cycle 7, Day 1): −4.4 (6.3) Percent Predicted TLC
- Change From Baseline in Percent Predicted Total Lung Capacity (TLC) ([3]; Cohort 2: 200 mg BID, Cycle 8, Day 1): −5.0 (—) Percent Predicted TLC
- Change From Baseline in Percent Predicted Total Lung Capacity (TLC) ([3]; Cohort 2: 200 mg BID, Cycle 9, Day 1): −6.0 (8.5) Percent Predicted TLC
- Change From Baseline in Percent Predicted Total Lung Capacity (TLC) ([3]; Cohort 2: 200 mg BID, Cycle 10, Day 1): −18.5 (6.4) Percent Predicted TLC
- Change From Baseline in Percent Predicted Total Lung Capacity (TLC) ([3]; Cohort 2: 200 mg BID, Cycle 11, Day 1): −5.2 (11.2) Percent Predicted TLC
- Change From Baseline in Percent Predicted Total Lung Capacity (TLC) ([3]; Cohort 2: 200 mg BID, Cycle 12, Day 1): 0.0 (—) Percent Predicted TLC
- Change From Baseline in Percent Predicted Total Lung Capacity (TLC) ([3]; Cohort 2: 200 mg BID, Cycle 13, Day 1): −10.3 (18.7) Percent Predicted TLC
- Change From Baseline in Percent Predicted Total Lung Capacity (TLC) ([3]; Cohort 2: 200 mg BID, Cycle 14, Day 1): −7.0 (—) Percent Predicted TLC
- Change From Baseline in Percent Predicted Total Lung Capacity (TLC) ([3]; Cohort 2: 200 mg BID, Cycle 15, Day 1): −1.0 (5.6) Percent Predicted TLC
- Change From Baseline in Percent Predicted Total Lung Capacity (TLC) ([3]; Cohort 2: 200 mg BID, Cycle 16, Day 1): −14.0 (12.7) Percent Predicted TLC
- Change From Baseline in Percent Predicted Total Lung Capacity (TLC) ([3]; Cohort 2: 200 mg BID, Cycle 17, Day 1): −17.0 (11.4) Percent Predicted TLC
- Change From Baseline in Percent Predicted Total Lung Capacity (TLC) ([3]; Cohort 2: 200 mg BID, Cycle 18, Day 1): −16.0 (8.5) Percent Predicted TLC

From patent publication US20260027116A1, “Methods of Treating Chronic Graft-Versus-Host Disease Following Allogeneic Hematopoietic Stem Cell Transplantation” (Kadmon Corporation, LLC, priority 2022, published 2026)
